The results in this text go back to patent publication US6780887B1, “Anti-ischemic compounds” (Societe de Conseils de Recherches et d'Applications …, priority 1999, dated 2004).

“Also recorded” adds a separate entry of the source.

Data set [1] concerns purified mitochondria obtained from rat livers. The experiment in a line: In vitro mitochondrial respiration (stages III and IV, RCR) of purified mitochondria preincubated with compounds. It is filed as biochemical. The settings on record: for RCR increase (*): in % relative to the control brought to 100%; for Concentration (optimum concentration at which the effect was observed): RCR increase; for Concentration of maximum/optimal effect on RCR (optimal concentration in pre-incubation): rat liver mitochondria preincubated with compound; for Effect on mitochondria RCR (in words) / Effect on respiration stage IV (in words): in vitro. As for the experimental part: The mitochondria are isolated according to the method described by Nowicki et al., J. of Cerebral Blood Flow and Metabolism 2, p. […] The mitochondrial respiration is measured by an oxygen electrode connected to a recorder. The RCR represents the respiratory control, and represents the ratio of the oxygen consumption in the presence of an endogenous substrate (glutamate/malate) to the consumption after ADP phosphorylation in ATP.
The RCR has been subsequently calculated.

The subject of data set [2] is heart mitochondria. The experiment in a line: In vivo effect on heart mitochondria RCR after treatment of rats per os for one day. Set-up: species or system rat. As for the experimental part:
The following day, the rats are sacrificed and their mitochondria are isolated from the heart. Their respiratory activity is measured every 15 minutes for the 75 minutes following the isolation procedure.

Data set [3] has as its system neutrophil adherence to the endothelial cells. Nature of the data set: Neutrophil adherence to endothelial cells incubated under hypoxia. Format: cell-based, human. The note with it: 10^−8 mol/l. The method, then: After incubation, the cells are co-incubated with a non stimulated human neutrophil suspension.
Data set [4] can be described thus: Stability in human plasma (GC). It is filed as in vitro ADME. The note with it: 24 hours, 37° C. As for the experimental part: The compounds of examples 1 and 2 have been submitted to stability tests in order to evaluate their behaviour when in contact with plasma after a 3 and 24 hour incubation at a temperature of 37° C. These tests have been performed using GC following the evolution of chromatograms of the different esters compared to an internal standard as a function of time.
The injection of GC/MF pure products has been performed in the following conditions:
injection temperature: 250° C.
initial temperature: 40° C.
final temperature: 250° C.
temperature gradient: 10° C./mn
The different compounds have been prepared as follows: 10 μl of pure compound have been dissolved in 100 μl plasma at a temperature of 37° C. The resulting solution is stirred. After a 3 or 24 hour period of time, 5 μl of internal standard (N-benzylamine) and 1 ml ether are added to the solution maintained at 37° C. The sample is centrifuged for 10 minutes at a rate of 13,000 rpm. 1 μl of the supernatant phase (ether phase) is injected in GC. The sample is then GC analyzed. […] No other peak optionally corresponding to metabolization products is observed.

For data set [5], the system named is endothelial cells of the human umbilical vein. The experiment in a line: Protection of ATP content in endothelial cells incubated under hypoxia. Format: cell-based. The settings on record: for Average maximum protection of the decrease in ATP content induced by hypoxia: endothelial cells.
Excerpt: This variability is inherent to the experimental model. Indeed, for each experiment, a different culture is used from different umbilical cord isolated cells and there is a behaviour variability of the cells from one cord to another.
Data set [6] relates to hepatic mitochondria. The experiment in a line: In vivo effect on liver mitochondria RCR after treatment of rats per os for 5 days. Also on record: species or system rat. The note with it: for Effect on respiration stage IV (in words): liver mitochondria. As for the experimental part: Following the treatment, the rats are sacrificed. The mitochondria are isolated from the liver and their respiratory activity is measured every 15 minutes for the 75 minutes following the isolation procedure.

Data set [7] has as its system Promyelocyte cells. Nature of the data set: Etoposide-induced apoptosis in promyelocyte cells. The settings on record: cells incubated with etoposide. Format: cell-based. The method, then:
Promyelocyte cells are incubated in the presence of apoptosis-inducing agents like the etoposide, a type II topoisomerase inhibitor. After incubation, different parameters indicative of the apoptosis are detectable: caspase activation, cytochrome C release by the mitochondria, DNA fragmentation, etc.

Where [8] appears, read: 10^−7 M (optimum concentration).
Where [9] appears, read: 10^−6 M (optimum concentration).
The mark [10] stands for this setting: endothelial cells under hypoxia.

On to `CCOC(=O)CN(C)C(=O)C1CCCCC1` [Ethyl N-methyl-N-cyclohexamido ethanoate, Ethyl N-methyl -N-cyclohexamido Ethanoate], for which the “RCR increase (*)” value in data set [1] (setting [8]) is 15%. The “Concentration (optimum concentration at which the effect was observed)” value in data set [1] (rat liver mitochondria) is 10^−7 M.
Turning to `O=C(CC(=O)Nc1ccccc1)Nc1ccccc1` [N,N′-diphenylmalonamide, N-N′-diphenyl malonamide], in data set [1] (setting [8]), the “RCR increase (*)” value is recorded as 5%. The “Concentration (optimum concentration at which the effect was observed)” value in data set [1] (rat liver mitochondria) was 10^−7 M.
Regarding `O=C(CC(=O)O[C@@H]1C=CCC1)O[C@@H]1C=CCC1` [di-(S)-cyclopenten-2-yl malonate, di-(S)-2-cyclopenten-2-yl malonate], the “RCR increase (*)” value in data set [1] (setting [9]) is reported as 18%. The “Concentration (optimum concentration at which the effect was observed)” value in data set [1] (rat liver mitochondria) is given as 10^−6 M.
As to `C=CCOC(=O)C12CC1COC2=O` (centres unmarked) [example 2, 2-propenyl-3-Oxa-2-Oxobicyclo[3.1.0]-hexane-1-carboxylate], the “Heart mitochondria RCR increase” value in data set [2] (one day treatment, 3.6 mg/kg) is given as 56%. Moreover, in data set [3], the “Maximum inhibition of hypoxia induced neutrophil adherence increase” value is reported as 71%. Besides, the “Stability in human plasma (GC peak of compound)” value in data set [4] is listed as “not found any more”. In addition, the “Average maximum protection of the decrease in ATP content induced by hypoxia” value in data set [5] (10^−4 mol/l) was determined as 92.5%. In addition, in data set [5] (setting [10]), the “Concentration at which ATP protection becomes negligible” value was 10^−6 mol/l. The “Activity on liver mitochondria RCR (in words)” value in data set [6] (5 days, 0.18 mg/kg) is listed as “weakly active”. Further, in data set [6] (5 days, 3.6 mg/kg, liver), the “Mitochondria RCR increase (maximum)” value is given as 17%. In data set [6] (5 days), the “Effect on respiration stage IV (in words)” value is “decrease”. In data set [1], the “Optimal concentration in pre-incubation (mass concentration)” value is 0.0183 µg/mL and the “Concentration of maximum/optimal effect on RCR (optimal concentration in pre-incubation)” value is 10^−7 mol/l. For the same molecule, in data set [1] (rat liver mitochondria), the “Effect on mitochondria RCR (in words)” value is reported as “have an action on the RCR” and the “Effect on respiration stage IV (in words)” value was “decrease effect”.
As for Dicyclopenten-2-yl malonate [example 1], the “Heart mitochondria RCR increase” value in data set [2] (one-day treatment, 2.36 mg/kg) is 41%. In data set [7], the “Apoptosis induction (in words)” value is recorded as “apoptosis induction inhibition is observed”, the “Caspase 3 activation” value is “inhibited”, the “Cytochrome C release by the mitochondria” value is listed as “inhibited” and the DNA fragmentation entry was “inhibited”. Besides, the “Stability in human plasma (GC peak of compound)” value in data set [4] is recorded as “still observed”. The “Average maximum protection of the decrease in ATP content induced by hypoxia” value in data set [5] (10^−4 mol/l to 10^−5 mol/l) turned out to be 92.1%. In data set [5] (setting [10]), the “Concentration at which ATP protection becomes negligible” value is listed as 10^−8 mol/l and the “Protection of the decrease in ATP content induced by hypoxia (in words)” value is “able to protect reproducibly”. For the same molecule, in data set [6] (5 day treatment, 2.36 mg/kg), the “Hepatic mitochondria RCR increase” value is listed as 25%. Besides, in data set [6] (5 days, dose higher than 2.36 mg/kg), the “RCR versus control (in words)” value was “falls slightly below the control values”. For the same molecule, in data set [6] (5 days), the “Effect on respiration stage IV (in words)” value is reported as “clear decrease”. Moreover, in data set [1] (rat liver mitochondria), the “Concentration at which the RCR effect becomes negligible” value was 10^−9 mol/l, the “Effect on mitochondria RCR (in words)” value was “have an action on the RCR; also recorded: significatively increases” and the “Effect on respiration stage IV (in words)” value is recorded as “strongly decreases”. In addition, the “Concentration of maximum/optimal effect on RCR (optimal concentration in pre-incubation)” value in data set [1] is listed as 10^−6 mol/l.
As for “Ethyl 2,6-dimethyl-N-phenylamido Ethanoate”, the “RCR increase (*)” value in data set [1] (setting [9]) was 13%. Further, the “Concentration (optimum concentration at which the effect was observed)” value in data set [1] (rat liver mitochondria) was 10^−6 M.
For “Ethyl N-phenylamido Ethanoate [Ethyl N-phenlyamido ethanoate]”, in that order: 6.6% and 10^−6 M.
